The results in this text go back to patent US20260273074A1, “FERRITIN-TARGETING PROTACS AND METHODS OF INDUCING PYROPTOSIS” (Wisconsin Alumni Research Foundation, priority 2023, published 2026).

Assay [1] deals with T1, apoferritin from equine spleen (Equus caballus, UniProt P02791).
T1 construct: the apoferritin from equine spleen (A3660, Sigma-Aldrich) that is not combined with iron was used; purchased Sigma-Aldrich A3660; host or cells: equine spleen (tissue-derived)
T1 sequence (P02791 2-175 limits assumed): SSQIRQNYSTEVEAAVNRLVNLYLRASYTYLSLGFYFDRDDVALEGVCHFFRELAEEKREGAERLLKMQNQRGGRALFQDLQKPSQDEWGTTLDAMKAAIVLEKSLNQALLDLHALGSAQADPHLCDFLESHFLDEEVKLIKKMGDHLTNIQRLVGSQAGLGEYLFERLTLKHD
Briefly: Isothermal titration calorimetry (ITC) binding to ferritin. How it is done: As for the ferritin proteins, the apoferritin from equine spleen (A3660, Sigma-Aldrich) that is not combined with iron was used. Before the ITC test, 1 mL of apoferritin in glycerol solution (50% glycerol and 0.075 M NaCl) was placed in a dialysis bag with a molecular weight cut-off of 3 kDa. The dialysis bags were then immersed in the prepared solution (20 mM Tris-HCl, pH 8.5, and 130 mM NaCl) and stirred at room temperature. The dialysis buffer was changed every 24 h for three times, and the last buffer was collected and 0.05% DMSO was added to serve as the ITC buffer. As for the oleic acid, 12 μM apoferritin in the ITC buffer was placed in the ITC cell, and the syringe was full of 250 μM oleic acid in the same ITC buffer. Besides the first injection with 5 μL of the oleic acid solution, 18 aliquots with 10 μL of the oleic acid solution were titrated into the apoferritin solution with a time interval of 300 s. […] Besides the first injection with 1 μL of the apoferritin solution, 25 aliquots were titrated with a time interval of 300 s. Raw data were corrected for control titrations (the solution in the syringe into the blank ITC buffer in the cell) and integrated using Origin 7.0 (MicroCal). Binding kinetics parameters, including N, Kd, ΔH, and ΔS, were calculated using a single-class binding site model.
(In ITC the heat of successive injections is recorded.)

The subject of the next assay is T2, ferritin (Mus musculus).
T2 construct: ferritin expression levels in B16F10 cells were evaluated; endogenous in cells; host or cells: B16F10 (murine melanoma)
Briefly: Western blot of ferritin expression (ferritin degradation) in B16F10 cells. In kind it is cell-based, murine. As to conditions: B16F10 cells. As for the experimental part: Western blot analysis: After various treatments, ferritin expression levels in B16F10 cells were evaluated to investigate the DeFer-2-mediated ferritin degradation. Briefly, B16F10 cells were seeded in 6-well culture plates (5×10^4 cells per well) and cultured for 24 h. Then the medium in the corresponding wells except the negative control was replaced with 1 mL of medium containing ferritin degraders, albumin nanoparticles, the epimer formulations, the combination of VHL ligand and oleic acid, or the combination of the degrader and VHL ligand at the indicated concentrations. […] The lysates were centrifuged at 12,000 rpm for 10 min at 4° C., followed by quantification of the total proteins in the supernatant through the bicinchoninic acid assay (BCA) assay. Afterward, the proteins in the supernatant were mixed with the loading buffer and heated at 95° C. for 15 min. Equal amounts of proteins from different samples were loaded into 15% SDS-polyacrylamide gel (20 μg protein per lane) to separate target proteins. After separation, proteins were transferred to polyvinylidene fluoride (PVDF) membranes before the membranes were blocked with 5% nonfat milk in PBST. Then proteins were incubated with primary antibodies overnight at 4° C., followed by the incubation with the goat-anti-rabbit IgG H&L (HRP) secondary antibodies at room temperature for 2 h. Finally, the bands were detected with electrochemiluminescence (ECL) western blot substrate for imaging, and ImageJ software was used for quantification.

For the next assay, the system named is B16F10 cells. Briefly: Determination of intracellular free iron content. The format is cell-based, murine. Particulars: 5 μM, 8 h. How it is done: Determination of free iron content: Here, the focus was on detecting the intracellular free iron ions rather than protein-bound iron contents. The procedures for sample preparation were based on a previously reported method. B16F10 cells were seeded in T75 cell culture flasks (2×10^6 cells per well) and cultured for 24 h. […] After incubation for 8 h, cells were harvested and resuspended in 1 mL PBS. Besides, 800 μL of PBS cell suspension was subjected to centrifugation, and 780 μL of the supernatant was carefully removed. Afterward, 280 μL of ultrapure water was added to the cell precipitate. Following shaking at horizontal rotators for 12 h, the supernatant was transferred into 30 KDa ultrafiltration centrifuge tube after twice centrifugation at 2,000 g for 20 min. […] The lysates were centrifuged at 12,000 rpm for 10 min at 4° C., followed by quantification of the total proteins in the supernatant through the BCA assay.
As for iron content determination, 200 μL of the abovementioned filtrates were collected and treated with 10 μL of hydrochloric acid solution (6 mol/L), 100 μL of acetic acid-sodium acetate buffer (pH=4.5), 10 μL of 10% aqueous hydroxylamine hydrochloride, and 100 μL of o-phenanthroline (1 mg/mL). […] The iron ion content could be calculated according to the standard curve. […]

As for `CCCCCCCCC=CCCCCCCCC(=O)NCCCC(=O)NC(C(=O)N1CC(O)CC1C(=O)NCc1ccc(-c2scnc2C)cc1)C(C)(C)C` (stereo not drawn) [DeFer-2], the dissociation constant Kd in assay [1] came to 17.1 ± 1.96 µM. In addition, the “ferritin expression over time” value in the assay on ferritin (Mus musculus) (0.5 μM, 0-24 h) is given as “reduced the ferritin expression in a time-dependent manner”. The ferritin degradation result with ferritin (Mus musculus) (0.5 μM, 12 h (FIG. 5A)) is “successfully induced the ferritin degradation”. Also, the “degradation capacity compared among the three PROTACs” value with ferritin (Mus musculus) (0.5 μM, different time points) was “most potent degradation capacity with a longer duration of action”. In addition, the maximum ferritin degraded with ferritin (Mus musculus) (5 μM, 12 h) came to 58%. The “intracellular free iron content” value in the assay with B16F10 cells is recorded as “significant elevation”.

For orientation: Kd means a measure of binding affinity in units of concentration. Read a high Kd as weaker binding.
